From ChEMBL document CHEMBL5729768, “Azalactam compounds as HPK1 inhibitors” (2023)

How the values were obtained:
[1] = target: T1, Serine/threonine-protein kinase D2 (Homo sapiens, UniProt Q9BZL6)
T1 sequence (Q9BZL6 whole entry): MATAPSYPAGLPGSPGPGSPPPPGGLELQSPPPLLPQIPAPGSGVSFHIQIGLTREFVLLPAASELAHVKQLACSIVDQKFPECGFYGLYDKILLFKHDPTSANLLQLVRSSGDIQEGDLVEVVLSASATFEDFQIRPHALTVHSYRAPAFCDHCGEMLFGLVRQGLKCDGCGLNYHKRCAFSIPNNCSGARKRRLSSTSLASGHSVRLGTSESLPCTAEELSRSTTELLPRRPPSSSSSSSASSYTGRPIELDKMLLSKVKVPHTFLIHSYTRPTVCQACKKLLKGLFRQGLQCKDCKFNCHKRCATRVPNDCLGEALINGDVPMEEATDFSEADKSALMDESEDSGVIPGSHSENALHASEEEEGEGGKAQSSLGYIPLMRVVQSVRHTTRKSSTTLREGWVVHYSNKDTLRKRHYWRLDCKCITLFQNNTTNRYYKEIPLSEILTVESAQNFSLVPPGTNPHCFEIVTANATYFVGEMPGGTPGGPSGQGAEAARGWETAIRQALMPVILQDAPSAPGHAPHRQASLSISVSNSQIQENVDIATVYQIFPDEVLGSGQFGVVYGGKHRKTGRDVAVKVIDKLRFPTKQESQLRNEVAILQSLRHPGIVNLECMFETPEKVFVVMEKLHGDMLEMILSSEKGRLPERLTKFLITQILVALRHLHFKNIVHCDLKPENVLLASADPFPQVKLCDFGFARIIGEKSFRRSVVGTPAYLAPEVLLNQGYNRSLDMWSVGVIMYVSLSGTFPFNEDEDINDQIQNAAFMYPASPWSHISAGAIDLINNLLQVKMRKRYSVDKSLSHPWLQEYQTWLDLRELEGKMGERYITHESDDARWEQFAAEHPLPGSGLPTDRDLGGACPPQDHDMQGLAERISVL

[2] = target: Ribosomal protein S6 kinase alpha-2 (Homo sapiens, UniProt Q15349)
Ribosomal protein S6 kinase alpha-2, sequence (Q15349 whole entry): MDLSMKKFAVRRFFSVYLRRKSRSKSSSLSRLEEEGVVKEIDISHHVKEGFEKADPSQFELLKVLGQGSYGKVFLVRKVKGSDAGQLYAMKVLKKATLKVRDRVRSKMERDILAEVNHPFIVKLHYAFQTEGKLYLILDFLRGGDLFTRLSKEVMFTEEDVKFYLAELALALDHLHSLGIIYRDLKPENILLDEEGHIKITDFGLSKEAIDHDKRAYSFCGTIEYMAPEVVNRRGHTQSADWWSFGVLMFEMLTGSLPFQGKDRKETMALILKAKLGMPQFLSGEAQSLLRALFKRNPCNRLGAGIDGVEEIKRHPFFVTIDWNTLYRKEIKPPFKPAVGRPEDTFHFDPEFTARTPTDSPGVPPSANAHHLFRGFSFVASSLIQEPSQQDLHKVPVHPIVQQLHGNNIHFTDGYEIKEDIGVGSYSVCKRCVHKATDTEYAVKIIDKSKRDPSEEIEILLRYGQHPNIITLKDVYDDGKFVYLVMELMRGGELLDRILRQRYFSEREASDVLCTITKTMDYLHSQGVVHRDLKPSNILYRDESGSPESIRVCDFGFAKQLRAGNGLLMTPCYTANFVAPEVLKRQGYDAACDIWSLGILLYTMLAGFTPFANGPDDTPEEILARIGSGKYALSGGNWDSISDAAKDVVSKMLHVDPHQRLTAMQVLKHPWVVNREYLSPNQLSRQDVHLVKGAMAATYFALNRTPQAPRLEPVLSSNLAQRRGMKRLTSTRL

IC50 [1] [nM] | IC50 [2] [nM] | SMILES
251 | 53.5 | CC[C@@H](N)c1nc(N(C)C(C)C)cc2c1CN(c1cccc(-c3nnc4n3[C@@H](C)CC4)n1)C2=O
942 | 48.6 | COC[C@@H](N)c1nc(C2(C)CC2)cc2c1CN(c1cccc(-c3nnc4n3[C@@H](C)CC4)n1)C2=O
